Where two headings read alike, the source gives them in different places.
Columns and labels:
255 kinases = test: Kinome-wide selectivity, Off-chip Mobility Shift Assay; assay type: biochemical; conditions: 20 nmol/L
Description: However, the potential secondary effects of the pharmacological inhibition of these eight kinases, with IC50 values below that of the wild-type EGFR, remain to be elucidated.
Supplementary Fig 3. […] The […]
plasmon resonance (SPR) analysis with single-cycle kinetics. KD values were calculated via curve fitting with 1:1 binding model or steady-state affinity evaluation. Mean KD values and standard deviation (s.d.) obtained from three independent experiments are shown.
Supplementary Fig 4. Kinome-wide selectivity of TAS3351. […]
determination of the IC50 values. […]

[1] = system: Ba/F3 cell EGFR (ex19del); test: Ba/F3-EGFR cell viability assay (CellTiter-Glo); assay type: cell-based, murine; conditions: Mus musculus, BaF3, Mean
Description: (§1) Human full-length EGFR harboring a particular mutation or wild-type EGFR was cloned into the PB-CMV-MCS-EF1-RFP-T2A-Puro PiggyBac vector (System Biosciences) to construct the EGFR PiggyBac vector plasmids. Each EGFR PiggyBac plasmid was simultaneously transfected into Ba/F3 cells with Super PiggyBac Transposase Expression Vector (System Biosciences) using a Nucleofector (Lonza). Afterward, the cells were treated with puromycin to select the cells which were stably integrated EGFR.
(§2) In Ba/F3-EGFR (wild-type) cells, hEGF (FUJIFILM Wako Pure Chemical Corporation) was added at a final concentration of 50 ng/mL. […] The cells were treated with appropriately diluted test compounds in DMSO and incubated for 3 days. Cell viability was analyzed using CellTiter-Glo 2.0 (Promega), according to the manufacturer’s protocol. The IC50 values were calculated by nonlinear regression analysis using XLfit.

[2] = system: Ba/F3 cell EGFR (L858R/T790M/C797S); test: Ba/F3-EGFR cell viability assay (CellTiter-Glo); assay type: cell-based, murine; conditions: Mus musculus, BaF3, Mean
Description: as §1, §2

[3] = Body weight evaluation in allograft and xenograft mouse models; assay type: in vivo; conditions: once-daily oral administration; NIH/3T3-EGFR allograft models (Fig. 5a–d)
Description: The tumor volumes were calculated using the following equation: Tumor Volume (mm^3) = 0.5 × major axis (mm) × minor axis (mm) × minor axis (mm). […] Tukey’s test (SAS with EXSUS) was used to evaluate statistical significance (p ≥ 0.05) on the logarithmically transformed mean tumor volume in each allocated group on Days 0 or 1, and no statistical significance was confirmed before initiating the experiments. During the experiments, the mice in each labeled cage were identified by the position of the cut on their pinnae. The test compounds were administered orally at a dose of 10 mL/kg. The tumor volume and body weight of each mouse were measured once every 2–5 days. The application of the humane endpoints was determined primarily based on tumor volume, body weight change, and systemic physical condition. For Pharmacodynamics Marker (PD) analysis, the mice were randomized into groups based on tumor volume when the average tumor volume reached approximately 400–600 mm^3, following the previously described procedure, including the identification of individual mice. […] Tumor samples were excised and placed in homogenate tubes, frozen in liquid nitrogen, and stored in an ultra-low temperature freezer set at −80 °C until use.
Based on the predefined humane endpoint criteria for this study, †each animal in vehicle control and
under anesthesia on day 8. […]

[4] = system: NIH/3T3-EGFR (ex19del/T790M/C797S)-luc cells; test: Intracranial tumor transplanted mouse allograft model; assay type: in vivo; conditions: 20 and 40 mg/kg; with statistical significance
Description: Male nude mice (BALB/cAJcl-nu/nu, 6 weeks old, microbiological grade: Specific pathogen free, CLEA Japan) were each head-fixed under anesthesia with a stereotaxic apparatus, and 2 μL of the cell suspension was injected at 0.5 mm anterior, 2.0 mm right, and 3.5 mm deep from the bregma, whereby 1.0 × 10^4 cells per mouse were transplanted. The mice were anesthetized with an intraperitoneal injection of the MMB mixed agent, a saline with 0.075 mg/mL medetomidine hydrochloride (Nippon Zenyaku Kogyo CO., Ltd.), 0.4 mg/mL midazolam (Fuji Pharma Co., Ltd.), and 0.5 mg/mL butorphanol tartrate (Meiji Seika Pharma Co., Ltd.), at a volume of 10 mL/kg body weight. Propeto (Maruishi Pharmaceutical Co., Ltd.) was applied to the eyeballs to prevent drying during the transplantation. The day of cell transplantation was defined as day 0. 150 mg/kg Luciferin (Promega Corporation) was intraperitoneally administered to measure the level of luminescence (photons/s) using an IVIS Lumina II Imaging System (PerkinElmer) on days 8, 13, and 19. Mice were anesthetized with isoflurane and placed in the prone position in the IVIS Lumina II Imaging System chamber. […] The total flux in the region of interest of the head was calculated using Living Image software (version 3.2.0.7800). […] The application of the humane endpoints was determined primarily based on body weight change, behavior, and systemic physical condition. […]

[5] = target: human recombinant EGFR Ex19del/T790M/C797S (Homo sapiens, UniProt P00533, C797S/DEL746-750/T790M); test: EGFR biochemical kinetics assay (PhosphoSens Kinase Assay), Ki
[6] = system: P-gp and BCRP in Caco-2 cells
[7] = target: human recombinant EGFR L858R/T790M (Homo sapiens, UniProt P00533, L858R/T790M); test: EGFR biochemical kinetics assay (PhosphoSens Kinase Assay), Ki
[8] = target: human recombinant EGFR L858R (Homo sapiens, UniProt P00533, L858R); test: as above
[9] = system: A-431 (wild-type) xenograft; assay type: in vivo, mouse; conditions: at least at doses below 50 mg/kg; once-daily oral
Description: The tumor volumes were calculated using the following equation: Tumor Volume (mm^3) = 0.5 × major axis (mm) × minor axis (mm) × minor axis (mm). […] Tukey’s test (SAS with EXSUS) was used to evaluate statistical significance (p ≥ 0.05) on the logarithmically transformed mean tumor volume in each allocated group on Days 0 or 1, and no statistical significance was confirmed before initiating the experiments. During the experiments, the mice in each labeled cage were identified by the position of the cut on their pinnae. The test compounds were administered orally at a dose of 10 mL/kg. The tumor volume and body weight of each mouse were measured once every 2–5 days. The application of the humane endpoints was determined primarily based on tumor volume, body weight change, and systemic physical condition. […]
The statistical analyses were performed with SAS (SAS Institute Inc., ver. 9.4) in an EXSUS (EPS Corporation, ver. 10.0.3) environment. In the studies of subcutaneous tumor-transplant mouse models, the difference in mean tumor volume between each treated group and the control group was analyzed using Dunnett’s test. In the study of intracranial tumor transplanted mouse models, the difference of the mean logarithmically transformed total flux of each treated group with that of the control group was evaluated with Dunnett’s test.

[10] = system: pEGFR, pAkt, pErk1/2 in NCI-H1975 xenograft tumors; test: Pharmacodynamic marker analysis (immunoblotting) in NCI-H1975 xenograft tumors; assay type: in vivo, mouse; conditions: for phosphorylation of EGFR, Akt, and Erk1/2 in tumor: 24 h
Description: Frozen tumor samples were homogenized in cold RIPA buffer (Thermo Fisher Scientific) supplemented with PhosSTOP (Merck KGaA) and cOmplete, Mini, EDTA-free Protease Inhibitor Cocktail (Merck KGaA) using Multi-beads Shocker (Yasui Kikai Corporation). The tumor protein extracts obtained via centrifugation of the supernatants were stored on ice until the assay. The protein concentration of the extracts was determined using BCA Protein Assay (Thermo Fisher Scientific), according to the manufacturer’s protocol. The protein concentration of the extracts was adjusted to 1 mg/mL using RIPA buffer and Lane Marker Reducing Sample Buffer (Thermo Fisher Scientific) to prepare SDS-PAGE samples; afterward, the samples were denatured by heating at 98 °C for 5 min. After cooling to room temperature, the extracts and samples were frozen until SDS-PAGE analysis. 5 μg/lane of each SDS-PAGE sample was subjected to SDS-PAGE analysis using 7.5% polyacrylamide gels (Bio-Rad Laboratories) and transferred to polyvinylidene difluoride (PVDF) membranes using a Trans-Blot Turbo Transfer System (Bio-Rad Laboratories). Membranes were blocked with the PVDF Blocking Reagent for Can Get Signal (TOYOBO). After blotting with primary antibodies, the membranes were incubated with horseradish peroxidase (HRP)-conjugated secondary antibodies. The antibodies were diluted in Can Get Signal Solution1/2 (TOYOBO) according to the manufacturer’s protocol. […] All antibodies were diluted to a concentration of 1:1000.

[11] = target: recombinant wild-type and mutated EGFR; test: Off-chip mobility shift assay (MSA) at ATP concentrations near Km; assay type: biochemical, human; conditions: ATP concentrations near the Km values for ATP in each recombinant EGFR
Description: The reaction mixtures and test compounds dissolved in dimethylsulfoxide (DMSO) were mixed and incubated for 1 hour at room temperature. The reaction was terminated by adding the Termination Buffer of QuickScout Screening Assist MSA (Carna Biosciences). The reaction mixture was applied to a LabChip system (PerkinElmer), and the product (P) and substrate (S) peptide peaks were separated and quantified. The kinase reaction was evaluated by calculating the product ratio from the peak heights of the P and S peptides (P/(P + S)). […] IC50 values were calculated from the concentration vs %inhibition curves by fitting to a four-parameter logistic curve using Microsoft Excel 2013 with the Solver add-in software.
Supplementary Fig 1. Chemical structure of EGFR-TKIs in the series of pyrrolopyrimidine-quinoline chemical core structure. The chemical structures of TAS3351 (a), TAS3351 analog, […]
the pyrrolopyrimidine-quinoline chemical core structure. Red-highlighted parts of the chemical structures indicate the pyrrolopyrimidine-quinoline. […]
inhibition was measured via Off-chip Mobility Shift Assay (MSA) using recombinant wild-type and mutated EGFR in the ATP concentration relevant to Km values of each human recombinant EGFR. ATP concentrations in the assay in each recombinant EGFR are as follows: wild type, ex19del/T790M, and […]
indicate standard deviation (s.d.) from triplicates. […]

[12] = target: human recombinant EGFR Ex19del (Homo sapiens, UniProt P00533, DEL746-750); test: EGFR biochemical kinetics assay (PhosphoSens Kinase Assay), Ki
[13] = target: human recombinant EGFR Ex19del/T790M (Homo sapiens, UniProt P00533, DEL746-750/T790M); test: as above
[14] = Assessment of brain penetrability in mice (plasma and brain PK); assay type: in vivo; conditions: BALB/cAJcl-nu/nu, mouse; for AUC(0-t): plasma, male nude mice, read-out: AUC0-24 hr Plasma; for Kp uu / Kp: male, oral; for Kp uu: brain, unbound brain AUC / unbound plasma AUC; for Kp: brain AUC0-24 hr / plasma AUC0-24 hr
Description: Prior to the study, the animal use protocol was reviewed and approved by the Institutional Animal Care and Use Committee in Sekisui Medical Co., Ltd., and the study was conducted in accordance with the regulations and guidelines of animal experiments specified by the Testing Facility in Sekisui Medical Co., Ltd. On the day of administration, the mice were assigned to groups by the stratification body weight average method. […] After centrifugation of the blood samples, the collected plasma samples were stored in an ultra-low-temperature freezer until the analysis. At the same time, the brain samples also collected, weighed, and mixed with PBS at ratio of 1:3 (w/v). After adding zirconia beads to the container, the brain samples were homogenized with Shake Master Auto (Biomedical Science) for 3 min to prepare the brain homogenate. The homogenate samples were stored in an ultra-low-temperature freezer until the analysis. […] The areas under the concentration-time curve from 0 to 24 h (AUC0-24 hr) of plasma and brain were calculated from mean concentration values using Phoenix WinNonlin 8.1 (Certara). Kp,brain was determined by dividing the total brain AUC0-24 hr by the total plasma AUC0-24 hr. Kp,uu,brain was determined by dividing the unbound brain AUC0-24 hr by the unbound plasma AUC0-24 hr, and the unbound AUC0-24 hr was determined by multiplying the total AUC0-24 hr by the respective tissue unbound fraction.

[15] = system: EGFR harboring L718Q and L718V; test: Inhibitory spectrum against other osimertinib-resistant mutations (author rebuttal); conditions: data not shown

For `C#Cc1c(-c2cnc3ccccc3c2)c2c(N)ncnc2n1C12CCC(NC(=O)c3cnc(C)cn3)(CC1)C2` [TAS3351], the “number of kinases whose enzymatic activity was inhibited by over 50%” value (255 kinases) was 26, the IC50 [1] was 2.84 nM and the IC50 [2] was 241 nM. The body weight [3] was “without apparent body weight loss”, the “intracranial luciferase activity (total flux) vs vehicle” value [4] was “reduced intracranial luciferase activity” and the Ki [5] was 0.018 nM. For the same compound, the “P-gp or BCRP substrate” value [6] was “not a P-gp or BCRP substrate”, the Ki [7] was 0.224 nM and the Ki [8] was 0.259 nM. For the same compound, the “difference in the Ki values between ex19del and L858R mutations” value ([8]; L858R vs ex19del) was “over 50 fold”, the “inhibition of xenograft growth” value [9] was “did not demonstrate statistically significant inhibition of xenograft growth” and the “phosphorylation of EGFR, Akt, and Erk1/2 in tumor” value ([10]; 40 mg/kg single oral) was “restored to nearly baseline”. For the same compound, the “phosphorylation of EGFR, Akt, and Erk1/2 in tumor” value ([10]; 80 mg/kg single oral) was “partially inhibited”, the “phosphorylation of EGFR, Akt, and Erk1/2 in tumor vs control” value ([10]; 40 and 80 mg/kg single oral, 1–8 h post-administration) was “significantly reduced” and the IC50 values [11] was “sub-nanomolar range”. For the same compound, the Ki [12] was 0.0048 nM, the Ki [13] was 0.00649 nM and the AUC(0-t) ([14]; 20 mg/kg single oral) was 72.5 µM·h. The AUC(0-t) ([14]; 40 mg/kg single oral) was 202 µM·h, the AUC(0-t) ([14]; 80 mg/kg single oral) was 377 µM·h and the Kp uu ([14]; 20 mg/kg) was 0.68. It also gave a Kp uu ([14]; 40 mg/kg) of 1.08, a Kp uu ([14]; 80 mg/kg) of 1.47 and a Kp ([14]; 20 mg/kg) of 0.32. For the same compound, the Kp ([14]; 40 mg/kg) was 0.51, the Kp ([14]; 80 mg/kg) was 0.69 and the “efficacy against EGFR harboring L718Q and L718V” value [15] was “not effective”.
